Data taken from patent US12077503B2, “Substituted cyclic amides and their use as herbicides” (FMC CORPORATION, priority 2015, dated 2024).

Assays:
Type in all cases: in vivo
[1] = system: barnyardgrass (Echinochloa crus-galli); test: Test G Pre-Emergence Protocol; conditions: Echinochloa crus-galli, pre-emergence, 312 h, evaluated after 13 days
How it was run: (§1)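 Herbicidal effect was rated 13 days post-application on a scale where 100 equals total damage. Spraying took place the day after sowing, using 15.625, 62.5 or 250 g/ha of compound in a 50:50 acetone/water solution with 0.5% Tween 20.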

corn (Zea mays) [2] = test: Test G Pre-Emergence Protocol; conditions: Zea mays, pre-emergence, 312 h, evaluated after 13 days
How it was run: as §1

[3] = system: giant foxtail (Setaria faberi); test: Test G Pre-Emergence Protocol; conditions: Setaria faberi, pre-emergence, 312 h, evaluated after 13 days
How it was run: as §1

[4] = system: ivy-leaved morning glory (Ipomoea hederacea); test: Test G Pre-Emergence Protocol; conditions: Ipomoea, pre-emergence, 312 h, evaluated after 13 days
How it was run: as §1

[5] = system: redroot pigweed (Amaranthus retroflexus); test: Test G Pre-Emergence Protocol; conditions: Amaranthus retroflexus, pre-emergence, 312 h, evaluated after 13 days
How it was run: as §1

[6] = system: velvetleaf (Abutilon theophrasti); test: Test G Pre-Emergence Protocol; conditions: Abutilon theophrasti, pre-emergence, 312 h, evaluated after 13 days
How it was run: as §1

[7] = system: barnyardgrass (Echinochloa crus-galli); test: Test G Post-Emergence Protocol; conditions: Echinochloa crus-galli, post-emergence, 312 h
How it was run: (§2)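 Pot-grown seedlings, 8 days old, raised in a glasshouse at 24/16 °C day/night with 14 h light and 65% humidity, were sprayed post-emergence with test compound in acetone/water (50:50) plus 0.5% Tween 20 at 15.625, 62.5 or 250 g/ha. Damage was scored visually 13 days later on a 0–100 scale (100 = total damage).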

corn (Zea mays) [8] = test: Test G Post-Emergence Protocol; conditions: Zea mays, post-emergence, 312 h
How it was run: as §2

[9] = system: giant foxtail (Setaria faberi); test: Test G Post-Emergence Protocol; conditions: Setaria faberi, post-emergence, 312 h
How it was run: as §2

[10] = system: ivy-leaved morning glory (Ipomoea hederacea); test: Test G Post-Emergence Protocol; conditions: Ipomoea, post-emergence, 312 h
How it was run: as §2

[11] = system: redroot pigweed (Amaranthus retroflexus); test: Test G Post-Emergence Protocol; conditions: Amaranthus retroflexus, post-emergence, 312 h
How it was run: as §2

[12] = system: velvetleaf (Abutilon theophrasti); test: Test G Post-Emergence Protocol; conditions: Abutilon theophrasti, post-emergence, 312 h
How it was run: as §2

CN1C[C@@H](c2cncc(Cl)c2)[C@H](C(=O)Nc2cccc(F)c2F)C1=O (racemic) [Compound 1461]
pest or weed control at 15.625 g/ha ([1]; 15.625 g ai/ha, read-out: Barnyard grass damage rating (100=total damage to plant; 0=no damage to plant)): 0% | pest or weed control at 62.5 g/ha ([1]; 62.5 g ai/ha, 100=total damage to plant, 0=no damage to plant, read-out: plant damage rating, Barnyardgrass): 60% | pest or weed control at 250 g/ha ([1]; 250 g ai/ha, read-out: Barnyardgrass damage rating (100=total damage to plant; 0=no damage to plant)): 90% | plant injury at 15.625 g/ha (corn (Zea mays) [2]; 15.625 g ai/ha, read-out: Corn damage rating (100=total damage to plant; 0=no damage to plant)): 0% | plant injury at 62.5 g/ha (corn (Zea mays) [2]; 62.5 g ai/ha, 100=total damage to plant, 0=no damage to plant, read-out: plant damage rating, Corn): 0% | plant injury at 250 g/ha (corn (Zea mays) [2]; 250 g ai/ha, read-out: Corn damage rating (100=total damage to plant; 0=no damage to plant)): 0% | pest or weed control at 15.625 g/ha ([3]; 15.625 g ai/ha, read-out: Foxtail, Giant damage rating (100=total damage to plant; 0=no damage to plant)): 30% | pest or weed control at 62.5 g/ha ([3]; 62.5 g ai/ha, 100=total damage to plant, 0=no damage to plant, read-out: plant damage rating, Foxtail, Giant): 80% | pest or weed control at 250 g/ha ([3]; 250 g ai/ha, read-out: Foxtail, Giant damage rating (100=total damage to plant; 0=no damage to plant)): 90% | pest or weed control at 15.625 g/ha ([4]; 15.625 g ai/ha, read-out: Morning-glory, Ivy-leaved damage rating (100=total damage to plant; 0=no damage to plant)): 0% | pest or weed control at 62.5 g/ha ([4]; 62.5 g ai/ha, 100=total damage to plant, 0=no damage to plant, read-out: plant damage rating, Morningglory, Ivy-leaved): 0% | pest or weed control at 250 g/ha ([4]; 250 g ai/ha, read-out: Morningglory, Ivy-leaved damage rating (100=total damage to plant; 0=no damage to plant)): 0% | pest or weed control at 15.625 g/ha ([5]; 15.625 g ai/ha, read-out: Pigweed, Redroot damage rating (100=total damage to plant; 0=no damage to plant)): 0% | pest or weed control at 62.5 g/ha ([5]; 62.5 g ai/ha, 100=total damage to plant, 0=no damage to plant, read-out: plant damage rating, Pigweed, Redroot): 0% | pest or weed control at 250 g/ha ([5]; 250 g ai/ha, read-out: Pigweed, Redroot damage rating (100=total damage to plant; 0=no damage to plant)): 0% | pest or weed control at 15.625 g/ha ([6]; 15.625 g ai/ha, read-out: Velvetleaf damage rating (100=total damage to plant; 0=no damage to plant)): 0% | pest or weed control at 62.5 g/ha ([6]; 62.5 g ai/ha, 100=total damage to plant, 0=no damage to plant, read-out: plant damage rating, Velvetleaf): 0% | pest or weed control at 250 g/ha ([6]; 250 g ai/ha, read-out: Velvetleaf damage rating (100=total damage to plant; 0=no damage to plant)): 0% | pest or weed control at 15.625 g/ha ([7]; 15.625 g ai/ha, evaluated after 13 days (100=total damage to plant; 0=no damage to plant), read-out: Barnyardgrass damage rating): 0% | pest or weed control at 62.5 g/ha ([7]; 62.5 g ai/ha, evaluated after 13 days, read-out: Barnyardgrass damage rating (100=total damage to plant; 0=no damage to plant)): 30% | pest or weed control at 250 g/ha ([7]; 250 g ai/ha, evaluated after 13 days, read-out: damage to plant, Barnyardgrass (100=total damage to plant; 0=no damage to plant)): 50% | plant injury at 15.625 g/ha (corn (Zea mays) [8]; 15.625 g ai/ha, evaluated after 13 days (100=total damage to plant; 0=no damage to plant), read-out: Corn damage rating): 10% | plant injury at 62.5 g/ha (corn (Zea mays) [8]; 62.5 g ai/ha, evaluated after 13 days, read-out: Corn damage rating (100=total damage to plant; 0=no damage to plant)): 0% | plant injury at 250 g/ha (corn (Zea mays) [8]; 250 g ai/ha, evaluated after 13 days, read-out: damage to plant, Corn (100=total damage to plant; 0=no damage to plant)): 0% | pest or weed control at 15.625 g/ha ([9]; 15.625 g ai/ha, evaluated after 13 days (100=total damage to plant; 0=no damage to plant), read-out: Foxtail, Giant damage rating): 20% | pest or weed control at 62.5 g/ha ([9]; 62.5 g ai/ha, evaluated after 13 days, read-out: Foxtail, Giant damage rating (100=total damage to plant; 0=no damage to plant)): 70% | pest or weed control at 250 g/ha ([9]; 250 g ai/ha, evaluated after 13 days, read-out: damage to plant, Foxtail, Giant (100=total damage to plant; 0=no damage to plant)): 70% | pest or weed control at 15.625 g/ha ([10]; 15.625 g ai/ha, evaluated after 13 days (100=total damage to plant; 0=no damage to plant), read-out: Morningglory, Ivy-leaved damage rating): 0% | pest or weed control at 62.5 g/ha ([10]; 62.5 g ai/ha, evaluated after 13 days, read-out: Morningglory, Ivy-leaved damage rating (100=total damage to plant; 0=no damage to plant)): 0% | pest or weed control at 250 g/ha ([10]; 250 g ai/ha, evaluated after 13 days, read-out: damage to plant, Morningglory, Ivy-leaved (100=total damage to plant; 0=no damage to plant)): 0% | pest or weed control at 15.625 g/ha ([11]; 15.625 g ai/ha, evaluated after 13 days (100=total damage to plant; 0=no damage to plant), read-out: Pigweed, Redroot damage rating): 0% | pest or weed control at 62.5 g/ha ([11]; 62.5 g ai/ha, evaluated after 13 days, read-out: Pigweed, Redroot damage rating (100=total damage to plant; 0=no damage to plant)): 0% | pest or weed control at 250 g/ha ([11]; 250 g ai/ha, evaluated after 13 days, read-out: damage to plant, Pigweed, Redroot (100=total damage to plant; 0=no damage to plant)): 0% | pest or weed control at 15.625 g/ha ([12]; 15.625 g ai/ha, evaluated after 13 days (100=total damage to plant; 0=no damage to plant), read-out: Velvetleaf damage rating): 0% | pest or weed control at 62.5 g/ha ([12]; 62.5 g ai/ha, evaluated after 13 days, read-out: Velvetleaf damage rating (100=total damage to plant; 0=no damage to plant)): 0% | pest or weed control at 250 g/ha ([12]; 250 g ai/ha, evaluated after 13 days, read-out: damage to plant, Velvetleaf (100=total damage to plant; 0=no damage to plant)): 0%
